Results reported in patent EP0359454B1, “CC-1065 analogs having two CPI subunits” (PHARMACIA & UPJOHN COMPANY, priority 1988, dated 1990).
Values after ≈ are worked out from the molar mass of the structure shown.

Assays:
L-1210 Leukemia = assay: L-1210 leukemia in vivo, IV drug vs IP tumor, dosed on day 1; set-up: species or system Male BDF1 mice; settings: IV drug vs IP tumor, dosed on day 1; for Best T/C: T/C = median survival treated/control x 100, each value at the dose (1-600 µg/kg); for cures: animals surviving 30 days are considered cured, at the dose (µg/kg)
Excerpt: (§1) Table 3 presents data comparing [S-(R*,R*)]-6,6′-[carbonylbis(imino-1H-indole-5,2-dicarbonyl)]bis[8-chloromethyl)-3,6,7,8-tetrahydro-1-methyl-benzo[1,2-b:4,3-b′]dipyrrol-4-ol (Compound 1) with (7bR)-N-[2-[(4,5,8,8a-tetrahydro-7-methyl-4-oxocyclopropa-[C]pyrrolo[3,2-e]indol-2(1H)0yl)carbonyl]-1H-indol-5-yl]-2-benzofurancarboxamide (U-73,975) in the other murine systems where the compounds have been run jointly.
The results set forth in Tables 1 and 4 were obtained using standard well known procedures (In Vivo Cancer, Models, NIH Publication No. 84-2635, 1984).
T/C refers to median life span of treated mice divided by median life span of control mice times 100.

L1210 leukemia cells = assay: In vitro L1210 cell growth inhibition; assay type: cell-based, murine; settings: Mus musculus, concentration of drug which inhibits cell growth 50%, read-out: ID50 (the source's name)
Excerpt: as §1

Structure (SMILES) | Best T/C (L-1210 Leukemia) | cures (L-1210 Leukemia) | IC50 (L1210 leukemia cells)
Cc1c[nH]c2c(O)cc3c(c12)[C@H](CCl)CN3C(=O)c1ccc2[nH]c(C(=O)N3C[C@@H](CCl)c4c3cc(O)c3[nH]cc(C)c43)cc2c1 [Compound 10, [S-(R*,R*)]-6,6′-(1H-indole-2,5-diyldicarbonyl)bis[8-(chloromethyl)-3,6,7,8-tetrahydro-1-methyl-benzo[1,2-b:4,3-b′]dipyrrol-4-ol] | 213 | 1 | 
Cc1c[nH]c2c(O)cc3c(c12)[C@H](CCl)CN3C(=O)c1cc2cc(NC(=O)c3ccc(C(=O)Nc4ccc5[nH]c(C(=O)N6C[C@@H](CCl)c7c6cc(O)c6[nH]cc(C)c76)cc5c4)[nH]3)ccc2[nH]1 [Compound 7, [S-(R*,R*)]-N,N′-bis[2[[1-(chloromethyl)-1,6-dihydro-5-hydroxy-8-methylbenzo[1,2-b:4,3-b′]dipyrrol-3(2H)-yl]carbonyl]-1H-indol-5-yl]-1H-pyrrole-2,5-dicarboxamide] | 156 |  | 0.004 ng/mL (≈ 0.0044 nM)
Cc1c[nH]c2c(O)cc3c(c12)[C@H](CCl)CN3C(=O)c1cc2cc(NC(=O)c3ccc4[nH]c(C(=O)N5C[C@@H](CCl)c6c5cc(O)c5[nH]cc(C)c65)cc4c3)ccc2[nH]1 [Compound 12, [S-(R*,R*)]-2-[[1-(chloromethyl)-1,6-dihydro-5-hydroxy-8-methylbenzo[1,2-b:4,3-b′]dipyrrol-3(2H)-yl]carbonyl]-N-[3-[[1-(chloromethyl)-1,6-dihydro-5-hydroxy-8-methylbenzo[1,2-b:4,3-b′]dipyrrol-3(2H)-yl]carbonyl]-1H-indol-6-yl]-1H-indole-5-carboxamide] | 181 |  | 
Cc1c[nH]c2c(O)cc3c(c12)[C@H](CCl)CN3C(=O)c1cc2c3c(ccc2[nH]1)N(C(=O)N1CCc2c1ccc1[nH]c(C(=O)N4C[C@@H](CCl)c5c4cc(O)c4[nH]cc(C)c54)cc21)CC3 [Compound 16, [S-(R*,R*)]-6,6′-[carbonylbis[(7,8-dihydrobenzo[1,2-b:4,3-b′]dipyrrole-6,2(3H)-diyl)carbonyl]]bis[8-chloromethyl)-3,6,7,8-tetrahydro-1-methyl-benzo[1,2-b:4,3b′]dipyrrol-4-ol] | 243 | 1/6 | 0.002 ng/mL (≈ 0.0023 nM)
Cc1c[nH]c2c(O)cc3c(c12)[C@H](CCl)CN3C(=O)c1cc2cc(NC(=O)c3ccc(C(=O)Nc4ccc5[nH]c(C(=O)N6C[C@@H](CCl)c7c6cc(O)c6[nH]cc(C)c76)cc5c4)o3)ccc2[nH]1 [Compound 6, [S-(R*,R*]-N,N′-bis[2-[[1-(chloromethyl)-1,6-dihydro-5-hydroxy-8-methylbenzo[1,2-b:4,3-b′]dipyrrol-3(2H)-yl]carbonyl]-1H-indol-5-yl]-2,5-furandicarboxamide] | 178 | 1 | 0.012 ng/mL (≈ 0.0132 nM)
Cc1c[nH]c2c(O)cc3c(c12)[C@H](CCl)CN3C(=O)c1cc2cc(NC(=O)c3ccc4[nH]c(C(=O)Nc5ccc6[nH]c(C(=O)N7C[C@@H](CCl)c8c7cc(O)c7[nH]cc(C)c87)cc6c5)cc4c3)ccc2[nH]1 [Compound 11, [S-(R*,R*)]-N,N′-bis[2-[[1-(chloromethyl)-1,6-dihydro-5-hydroxy-8-methylbenzo[1,2-b:4,3-b′]dipyrrol-3(2H)-yl]carbonyl]-1H-indol-5-yl]-1H-indole-2,5-dicarboxamide] | 188 |  | 
Cc1c[nH]c2c(OC(=O)C(C)(C)C)cc3c(c12)[C@H](CCl)CN3C(=O)c1cc2cc(NC(=O)Nc3ccc4[nH]c(C(=O)N5C[C@@H](CCl)c6c5cc(OC(=O)C(C)(C)C)c5[nH]cc(C)c65)cc4c3)ccc2[nH]1 [Compound 14, [S-(R*,R*)]-carbonylbis[imino-1H-indole-5,2-diylcarbonyl[1-(chloromethyl)-1,6-dihydro-8-methylbenzo[1,2-b:4,3-b′]dipyrrole-3,5(2H)-diyl]]ester, 2,2-dimethylpropanoic acid] | 156 |  | 
Cc1c[nH]c2c(O)cc3c(c12)[C@H](CCl)CN3C(=O)c1cc2cc(NC(=O)C(=O)Nc3ccc4[nH]c(C(=O)N5C[C@H](CCl)c6c5cc(O)c5[nH]cc(C)c65)cc4c3)ccc2[nH]1 [Compound 3, (R*,S*)-N,N′-bis[2-[[1-(chloromethyl)-1,6-dihydro-5-hydroxy-8-methylbenzo[1,2-b:4,3-b′]dipyrrol-3(2H)-yl]carbonyl]-1H-indol-5-yl]-ethanediamide] | 106 |  | 0.009 ng/mL (≈ 0.0107 nM)
Cc1c[nH]c2c(O)cc3c(c12)[C@H](CCl)CN3C(=O)c1ccc2[nH]c(C(=O)Nc3ccc4[nH]c(C(=O)N5C[C@@H](CCl)c6c5cc(O)c5[nH]cc(C)c65)cc4c3)cc2c1 [Compound 13, [S-(R*,R*)]-5-[[1-(chloromethyl)-1,6-dihydro-5-hydroxy-8-methylbenzo[1,2-b:4,3-b′]dipyrrol-3(2H)-yl]-carbonyl)-N-[2-[[1-(chloromethyl)-1,6-dihydro-5-hydroxy-8-methylbenzo[1,2-b:4,3-b′]dipyrrol-3(2H)-yl]carbonyl)-1H-indol-5-yl]-1H-indole-2-carboxamide] | 188 |  | 
Cc1c[nH]c2c1C13CC1CN(C(=O)c1cc4cc(NC(=O)Nc5ccc6[nH]c(C(=O)N7CC8CC89C7=CC(=O)c7[nH]cc(C)c79)cc6c5)ccc4[nH]1)C3=CC2=O (stereo not drawn) [Compound 2, [7bR-[2(7′bR*,8′aS*), 7bR*,8aS*]]-2,2′-[carbonylbis(imino-1H-indole-5,2-dicarbonyl)]bis[1,2,8,8a-tetrahydro-7-methyl-cyclopropa(c)pyrrolo[3,2-e]indol-4(5H)-one] | 169 |  | 0.001 ng/mL (≈ 0.00135 nM)
CC(=O)Oc1cc2c(c3c(C)c[nH]c13)[C@H](CCl)CN2C(=O)c1cc2cc(NC(=O)Nc3ccc4[nH]c(C(=O)N5C[C@@H](CCl)c6c5cc(OC(C)=O)c5[nH]cc(C)c65)cc4c3)ccc2[nH]1 [Compound 9, [S-(R*,R*)]-6,6′-[carbonylbis(imino-1H-indole-5,2-diylcarbonyl)bis[8-(chloromethyl)-3,6,7,8-tetrahydro-1-methyl-benzo[1,2-b:4,3-b′]dipyrrol-4-ol diacetate] | 165 |  | 
Cc1c[nH]c2c(O)cc3c(c12)[C@H](CCl)CN3C(=O)c1ccc(C(=O)N2C[C@@H](CCl)c3c2cc(O)c2[nH]cc(C)c32)o1 [Compound 5, [S-(R*,R*)]-6,6′-(2,5-furandiyldicarbonyl)bis[8-(chloromethyl)-3,6,7,8-tertrahydro-1-methyl-benzo[1,2-b:4,3′b′]dipyrrol-4-ol] | 156 |  | 0.01 ng/mL (≈ 0.0169 nM)
Cc1c[nH]c2c(O)cc3c(c12)[C@H](CCl)CN3C(=O)c1ccc(C(=O)N2C[C@@H](CCl)c3c2cc(O)c2[nH]cc(C)c32)[nH]1 [Compound 4, [S-(R*,R*)]-6,6′-(1H-pyrrole-2,5-diyldicarbonyl)bis[8-(chloromethyl)-3,6,7,8-tertrahydro-1-methyl-benzo[1,2-b:4,3-b′-]dipyrrol-4-ol] | 156 |  | 0.004 ng/mL (≈ 0.00675 nM)
CCCCCCCCCC(=O)Oc1cc2c(c3c(C)c[nH]c13)[C@H](CCl)CN2C(=O)c1cc2cc(NC(=O)Nc3ccc4[nH]c(C(=O)N5C[C@@H](CCl)c6c5cc(OC(=O)CCCCCCCCC)c5[nH]cc(C)c65)cc4c3)ccc2[nH]1 [Compound 15, [S-(R*,R*)]-carbonylbis[imino-1H-indole-5,2-diylcarbonyl[1-(chloromethyl)-1,6-dihydro-8-methylbenzo[1,2-b:4,3-b′]dipyrrole-3,5(2H)-diyl]]ester, decanoic acid] | 243 | 1 | 0.001 ng/mL (≈ 0.00089 nM)
Cc1c[nH]c2c(O)cc3c(c12)[C@H](CCl)CN3C(=O)c1cc2cc(NC(=O)CC(=O)Nc3ccc4[nH]c(C(=O)N5C[C@@H](CCl)c6c5cc(O)c5[nH]cc(C)c65)cc4c3)ccc2[nH]1 [Compound 8, [R-(R*,S*)]-N,N′-bis[2[[1-(chloromethyl)-1,6-dihydro-5-hydroxy-8-methylbenzo[1,2-b:4,3-b′]dipyrrol-3(2H)-yl]carbonyl]-1H-indol-5-yl]-propanediamide] | 194 |  | 0.006 ng/mL (≈ 0.007 nM)
